Patent US20230416210A1, “METHODS OF MAKING A PPAR-DELTA AGONIST” (Reneo Pharmaceuticals, Inc., priority 2020, published 2023)

Legend:
LXRα = target: T1, LXRα (Homo sapiens, UniProt Q13133); assay: Activation of human cells expressing nuclear receptors; assay type: cell-based
T1 sequence (Q13133 1-447): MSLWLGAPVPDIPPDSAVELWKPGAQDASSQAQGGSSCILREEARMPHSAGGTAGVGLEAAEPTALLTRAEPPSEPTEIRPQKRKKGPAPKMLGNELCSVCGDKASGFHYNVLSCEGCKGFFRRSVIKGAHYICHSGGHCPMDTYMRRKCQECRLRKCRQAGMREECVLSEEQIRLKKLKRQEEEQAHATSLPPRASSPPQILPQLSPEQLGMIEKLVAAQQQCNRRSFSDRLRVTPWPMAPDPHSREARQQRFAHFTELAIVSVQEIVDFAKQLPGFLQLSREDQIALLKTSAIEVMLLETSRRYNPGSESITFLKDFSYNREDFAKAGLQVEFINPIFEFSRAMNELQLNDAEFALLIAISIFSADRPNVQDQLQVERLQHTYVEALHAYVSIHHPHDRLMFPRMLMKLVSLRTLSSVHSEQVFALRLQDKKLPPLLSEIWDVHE

[1] = test system: Angiopoietin-like 4 (ANGPTL4); assay: In vivo expression of PPAR regulated target gene in rat muscle
LXRβ = target: T2, LXRβ (Homo sapiens, UniProt P55055); assay: Activation of human cells expressing nuclear receptors; assay type: cell-based
T2 sequence (P55055 1-460): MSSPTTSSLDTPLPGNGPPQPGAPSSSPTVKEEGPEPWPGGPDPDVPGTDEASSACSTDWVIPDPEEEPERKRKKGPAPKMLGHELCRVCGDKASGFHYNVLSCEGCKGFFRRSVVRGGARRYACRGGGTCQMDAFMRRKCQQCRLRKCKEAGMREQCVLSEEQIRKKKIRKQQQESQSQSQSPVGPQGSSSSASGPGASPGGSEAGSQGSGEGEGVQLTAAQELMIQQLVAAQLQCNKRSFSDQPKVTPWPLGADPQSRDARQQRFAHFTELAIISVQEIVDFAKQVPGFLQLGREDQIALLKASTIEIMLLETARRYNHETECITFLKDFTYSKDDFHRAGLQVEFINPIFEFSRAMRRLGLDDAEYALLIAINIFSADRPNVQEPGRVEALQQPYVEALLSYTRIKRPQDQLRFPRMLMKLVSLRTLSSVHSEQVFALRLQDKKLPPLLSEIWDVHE

FXR = target: T3, FXR (Homo sapiens, UniProt Q96RI1); assay: as above; assay type: cell-based
T3 sequence (Q96RI1 1-486): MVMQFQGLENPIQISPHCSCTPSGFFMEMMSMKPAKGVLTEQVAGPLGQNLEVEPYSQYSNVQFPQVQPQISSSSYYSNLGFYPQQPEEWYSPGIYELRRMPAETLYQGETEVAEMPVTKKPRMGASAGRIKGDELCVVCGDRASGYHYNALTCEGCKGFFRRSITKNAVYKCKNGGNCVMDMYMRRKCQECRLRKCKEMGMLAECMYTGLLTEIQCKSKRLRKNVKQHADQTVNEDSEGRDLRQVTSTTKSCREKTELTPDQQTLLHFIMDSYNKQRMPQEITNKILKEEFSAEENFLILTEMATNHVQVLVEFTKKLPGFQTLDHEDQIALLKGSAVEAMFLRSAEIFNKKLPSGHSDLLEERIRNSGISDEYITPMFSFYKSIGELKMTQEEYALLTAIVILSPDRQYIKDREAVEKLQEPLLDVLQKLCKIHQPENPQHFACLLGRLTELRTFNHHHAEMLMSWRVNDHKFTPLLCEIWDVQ

PPARα = target: T4, PPARα (Homo sapiens, UniProt Q07869); assay: PPAR agonist activity in human cell lines expressing PPAR isotypes; assay type: cell-based
T4 sequence (Q07869 1-468): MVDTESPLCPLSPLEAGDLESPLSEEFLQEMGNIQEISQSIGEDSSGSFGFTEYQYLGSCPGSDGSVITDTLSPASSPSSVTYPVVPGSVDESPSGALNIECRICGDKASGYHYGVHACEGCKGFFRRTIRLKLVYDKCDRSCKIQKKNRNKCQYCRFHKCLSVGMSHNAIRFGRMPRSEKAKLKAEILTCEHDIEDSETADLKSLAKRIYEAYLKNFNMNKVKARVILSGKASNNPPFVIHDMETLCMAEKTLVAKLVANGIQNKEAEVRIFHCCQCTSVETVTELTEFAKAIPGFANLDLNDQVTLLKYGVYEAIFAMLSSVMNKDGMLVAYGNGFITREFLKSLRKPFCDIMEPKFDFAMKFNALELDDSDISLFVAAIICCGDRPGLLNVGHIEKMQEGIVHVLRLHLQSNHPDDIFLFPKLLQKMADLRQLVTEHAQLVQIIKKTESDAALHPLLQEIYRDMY
Procedure: (§1) Compound I is a PPARδ agonist that is useful in the methods of treatment described herein. In human cell lines expressing all three peroxisome proliferator-activated receptor (PPAR) isotypes, Compound I is a potent (EC50<100 nM) and selective human PPARδ agonist, with minor activity on PPARα (EC50>10 μM) and PPARγ (EC50>10 μM).

human PPARδ = target: T5, human PPARδ (Homo sapiens, UniProt Q03181); assay: as above; assay type: cell-based
T5 sequence (Q03181 1-441): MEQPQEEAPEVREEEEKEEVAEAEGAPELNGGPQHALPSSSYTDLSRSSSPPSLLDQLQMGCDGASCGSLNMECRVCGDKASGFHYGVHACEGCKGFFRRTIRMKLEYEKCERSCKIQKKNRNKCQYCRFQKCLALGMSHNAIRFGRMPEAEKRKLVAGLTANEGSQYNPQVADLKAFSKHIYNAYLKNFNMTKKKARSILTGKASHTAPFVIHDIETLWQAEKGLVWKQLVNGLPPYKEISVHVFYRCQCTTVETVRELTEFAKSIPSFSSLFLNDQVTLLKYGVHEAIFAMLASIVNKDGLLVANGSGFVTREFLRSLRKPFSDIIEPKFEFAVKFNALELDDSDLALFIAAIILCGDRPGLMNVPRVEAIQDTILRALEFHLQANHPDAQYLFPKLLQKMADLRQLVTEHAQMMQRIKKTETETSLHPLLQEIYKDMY
Procedure: as §1

PPARγ = target: T6, PPARγ (Homo sapiens, UniProt P37231); assay: as above; assay type: cell-based
T6 sequence (P37231 1-505): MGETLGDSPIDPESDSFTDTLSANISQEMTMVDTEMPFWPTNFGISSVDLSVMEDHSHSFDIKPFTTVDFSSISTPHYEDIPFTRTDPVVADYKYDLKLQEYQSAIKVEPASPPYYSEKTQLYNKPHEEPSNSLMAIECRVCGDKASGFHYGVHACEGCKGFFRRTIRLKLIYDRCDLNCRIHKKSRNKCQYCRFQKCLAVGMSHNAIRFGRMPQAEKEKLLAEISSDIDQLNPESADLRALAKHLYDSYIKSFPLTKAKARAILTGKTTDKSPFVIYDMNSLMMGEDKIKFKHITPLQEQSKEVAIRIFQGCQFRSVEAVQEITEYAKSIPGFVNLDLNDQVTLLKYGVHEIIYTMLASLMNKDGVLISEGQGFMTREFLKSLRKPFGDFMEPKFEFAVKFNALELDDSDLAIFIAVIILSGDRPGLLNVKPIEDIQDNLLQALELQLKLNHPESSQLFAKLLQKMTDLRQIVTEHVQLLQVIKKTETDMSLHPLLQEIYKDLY
Procedure: as §1

[2] = Clinical studies, safety and tolerability; assay type: in vivo, human
RXR = assay: Activation of human cells expressing nuclear receptors; assay type: cell-based
[3] = test system: PPARδ regulated genes (CPT1b, PGC-1α); assay: In vivo expression of PPARδ regulated genes in mice muscle
PPARδ = target: T7, PPARδ (Mus musculus, UniProt P35396); details: mice, cited from earlier work
T7 construct: host or cells: mice (skeletal muscle), in vivo
T7 sequence (P35396 1-440): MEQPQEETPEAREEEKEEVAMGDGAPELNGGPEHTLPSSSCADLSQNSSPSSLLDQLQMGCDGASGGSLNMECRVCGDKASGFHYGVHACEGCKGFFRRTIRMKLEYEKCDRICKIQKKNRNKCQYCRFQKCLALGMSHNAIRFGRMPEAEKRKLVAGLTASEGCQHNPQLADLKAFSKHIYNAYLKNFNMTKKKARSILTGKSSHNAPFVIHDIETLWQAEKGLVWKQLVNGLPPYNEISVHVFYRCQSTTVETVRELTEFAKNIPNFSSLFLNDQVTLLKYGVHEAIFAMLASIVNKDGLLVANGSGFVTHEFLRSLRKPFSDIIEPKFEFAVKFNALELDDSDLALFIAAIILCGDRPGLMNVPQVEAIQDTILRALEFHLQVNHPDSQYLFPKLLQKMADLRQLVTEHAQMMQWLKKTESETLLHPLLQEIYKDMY

[4] = human cell lines expressing all three PPAR isotypes
[5] = in combination with exercise, 4 weeks

SMILES	activation of human cells expressing LXRα (LXRα)	expression of ANGPTL4 [1]	activation of human cells expressing LXRβ (LXRβ)	activation of human cells expressing FXR (FXR)	selectivity for PPARδ over PPARα (PPARα)	type of agonism on PPARα (PPARα)	EC50 (PPARα; [4])	type of agonism on PPARδ (human PPARδ)	EC50 (human PPARδ; [4])	selectivity for PPARδ over PPARγ (PPARγ)	type of agonism on PPARγ (PPARγ)	EC50 (PPARγ; [4])	incidence of adverse events (AEs) versus placebo [2]	serious adverse events (SAEs) [2]	safety and tolerability ([2]; Compound I or a pharmaceutically acceptable salt, solvate or hydrate)	activation of human cells expressing RXR (RXR)	expression of PPARδ regulated genes CPT1b (beta-oxidation of long chain fatty acids) and PGC-1α (mitochondrial biogenesis) [3]	energy substrate usage (PPARδ; 8 weeks)	muscle fibers, mitochondrial biogenesis (PPARδ; [5])	physical performance (PPARδ; [5])
Cc1cc(OC/C=C(/c2ccc(F)cc2)c2ccc(C#CCN3CCOCC3)cc2)ccc1OCC(=O)O [Compound I, (E)-2-(4-((3-(4-fluorophenyl)-3-(4-(3-morpholinoprop-1-yn-1-yl)phenyl)allyl)oxy)-2-methylphenoxy)acetic acid]	did not result in activation	increased the expression	did not result in activation	did not result in activation	100 fold	only partial agonist activity	> 10 µM	full PPARδ agonist	< 0.1 µM	400 fold	only partial agonist activity	> 10 µM	similar	No serious adverse events (SAEs) were reported	safe and well tolerated	did not result in activation	altered the expression patterns	–	–	–
Cc1cc(SCc2sc(-c3ccc(C(F)(F)F)cc3)nc2C)ccc1OCC(=O)O [GW1516]	–	–	–	–	–	–	–	–	–	–	–	–	–	–	–	–	–	clear shift in energy substrate usage from glucose to fatty acid oxidation	synergistically induced fatigue-resistant oxidative muscle fibers and mitochondrial biogenesis	enhanced physical performance
